Source: ChEMBL document CHEMBL1201862, “PubChem BioAssay data set” (2004)
Where a name gives a salt, the structure may show the parent alone. The source made the active and inactive calls.

Tested on: not listed separately
Assay: Luminescence Cell-Based Dose Response HTS to Identify Activators of Luciferase Translation or Activity in H4 […] Cells. [Related pubchem assays: 1829 (Project Summary), 1814 (Primary HTS)]
Type: functional
Conditions: not given

Row | Structure (SMILES) | EC50
1 | N#Cc1c(-c2ccc(Cl)cc2)ccn2nc(C3CCCCC3)nc12 | 6.98 µM (active)

Target: T1, Protein skinhead-1 (Caenorhabditis elegans, UniProt P34707)
T1 sequence (P34707 whole entry): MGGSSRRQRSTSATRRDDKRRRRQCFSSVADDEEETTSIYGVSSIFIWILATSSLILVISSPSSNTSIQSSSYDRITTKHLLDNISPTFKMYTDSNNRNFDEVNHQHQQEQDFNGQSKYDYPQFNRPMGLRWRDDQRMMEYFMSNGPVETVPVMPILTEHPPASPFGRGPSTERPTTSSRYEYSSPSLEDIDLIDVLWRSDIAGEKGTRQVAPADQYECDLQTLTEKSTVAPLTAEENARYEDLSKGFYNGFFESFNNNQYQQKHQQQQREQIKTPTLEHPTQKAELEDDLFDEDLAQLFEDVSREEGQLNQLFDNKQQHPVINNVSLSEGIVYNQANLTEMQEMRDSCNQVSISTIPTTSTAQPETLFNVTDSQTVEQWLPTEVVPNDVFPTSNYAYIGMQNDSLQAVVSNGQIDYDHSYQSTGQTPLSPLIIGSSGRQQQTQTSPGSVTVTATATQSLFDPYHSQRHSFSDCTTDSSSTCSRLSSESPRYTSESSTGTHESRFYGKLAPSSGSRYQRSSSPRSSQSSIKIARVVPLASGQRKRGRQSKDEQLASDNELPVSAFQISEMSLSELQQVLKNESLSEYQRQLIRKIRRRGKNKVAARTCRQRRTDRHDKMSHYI
Assay: not given
Type: functional
Conditions: not given

Row | Structure (SMILES) | IC50
2 | COc1ccc(CN2CCN(c3ccccc3F)CC2)cc1O | > 100 µM (inactive)
3 | COCC(=O)NCc1ccc2c(c1)cc(C)n2C | > 100 µM (inactive)
4 | Cn1nnnc1SCC(=O)N1CCN(c2cccc(Cl)c2)CC1 | > 100 µM (inactive)
5 | CCN(CC)C(=O)Oc1ccc(Br)c2ccccc12 | > 100 µM (inactive)
6 | O=C(Nc1ccc(-c2nnc(-c3ccccc3)o2)cc1)c1ccc(Br)o1 | 76.3 µM (inactive)
7 | C(=C\c1nc(-c2ccncc2)no1)/c1ccccc1 | 12.4 µM (active)
8 | Cn1/c(=N/C(=O)C2CC2)sc2cc(F)cc(F)c21 | > 100 µM (inactive)

Tested on: not listed separately
Assay: growth suppression of PTEN-null colon cells, dose response, cell-based, HCT116 PTEN knockout (AID 1047);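 also: HCT116 colon tumor cells with PTEN knocked out; cells exposed to compound for 60 hours before readout; potency for loss of cell viability measured by luminescence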
Type: functional
Conditions: not given

Row | Structure (SMILES) | EC50
9 | CCCCn1c(SCc2ncc(-c3ccccc3)o2)nc2cc(S(N)(=O)=O)ccc21 | 26 µM (active)

Tested on: not listed separately
Assay: HEp-2 cell cytotoxicity, dose response, cytotoxicity control for RSV inhibitor project, HTS (AID 2410)
Type: functional
Conditions: human respiratory syncytial virus

Row | Structure (SMILES) | CC50
10 | Cc1cccc(NC(=O)Cc2coc3ccc4ccccc4c23)n1 | 33.8 µM (active)
11 | COC(=O)c1ccc(-c2ccco2)n1Cc1nc(-c2ccc(OC)c(OC)c2)oc1C | 34 µM (active)
12 | OCCOCCn1c(CCNc2nc(-c3ccc(Cl)cc3)cs2)nc2cc(Cl)c(Cl)cc21 | 14.3 µM (active)
13 | CCOC(=O)c1cnn(-c2ccccc2)c1-n1cccc1C(=O)C(=O)Nc1ccccc1C(F)(F)F | 24.1 µM (active)
14 | O=C1CCC(/C=C/c2ccccc2)=NN1Cc1ccc(Cl)c(Cl)c1 | 24.4 µM (active)
15 | CCOc1cc(/C=N/NC(N)=O)cc(Br)c1OCc1ccccc1 | 19.4 µM (active)

Target: T2, Cytochrome P450 1A2 (Homo sapiens, UniProt P05177);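 also: PubChem cytochrome P450 panel assay, CYP1A2 panel member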
T2 sequence (P05177 whole entry): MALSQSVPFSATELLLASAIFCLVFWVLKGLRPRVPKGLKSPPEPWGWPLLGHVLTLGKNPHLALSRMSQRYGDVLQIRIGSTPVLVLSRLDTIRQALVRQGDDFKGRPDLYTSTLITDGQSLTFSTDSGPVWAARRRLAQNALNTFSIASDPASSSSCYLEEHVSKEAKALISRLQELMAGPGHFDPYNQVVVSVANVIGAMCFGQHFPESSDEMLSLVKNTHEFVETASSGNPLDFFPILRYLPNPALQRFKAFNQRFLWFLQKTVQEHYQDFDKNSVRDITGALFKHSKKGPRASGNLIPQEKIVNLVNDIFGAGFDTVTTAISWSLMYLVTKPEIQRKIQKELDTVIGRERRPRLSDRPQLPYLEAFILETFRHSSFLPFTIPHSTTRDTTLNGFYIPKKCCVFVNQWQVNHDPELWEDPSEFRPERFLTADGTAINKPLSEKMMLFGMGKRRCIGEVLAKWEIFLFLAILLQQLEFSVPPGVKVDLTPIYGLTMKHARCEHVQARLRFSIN
Assay: not given
Conditions: not given

Row | Structure (SMILES) | AC50
16 | CCOC(=O)c1cnn(-c2ccccc2)c1-n1cccc1C(=O)C(=O)Nc1ccccc1C(F)(F)F | 14.1 µM (inconclusive)

Tested on: not listed separately
Assay: growth suppression of beta-catenin-knockout colon cells, dose response, cell-based, HCT116, human colon tumor (AID 1045);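 also: HCT116 colon tumor cells with beta catenin knocked out; cells exposed to compound for 60 hours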
Type: functional
Conditions: not given

Row | Structure (SMILES) | EC50
17 | CCCCn1c(SCc2ncc(-c3ccccc3)o2)nc2cc(S(N)(=O)=O)ccc21 | 27.4 µM (active)

Tested on: not listed separately
Assay: microbe, parasite or virus in culture
Type: functional
Conditions: Mycobacterium tuberculosis

Row | Structure (SMILES) | CC50
18 | COc1cc(NC(=O)c2ccc(C(C)(C)C)cc2)c(OC)cc1NC(=O)CN1CCCCC1 | > 40 µM (active)
19 | Cc1ccc(NC(=S)N(CCCN2CCCC2)Cc2cccn2Cc2ccc(Cl)cc2)cc1C | 17.7 µM (active)
20 | CSc1nsc(/C=C/Nc2ccc(O)cc2C)c1C#N | > 40 µM (active)
21 | COc1ccc(-c2ccnc3nc(N4CCN(c5ccccc5)CC4)nn23)cc1 | > 40 µM (active)
22 | CCCCn1c(SCc2ncc(-c3ccccc3)o2)nc2cc(S(N)(=O)=O)ccc21 | > 40 µM (active)
23 | Oc1ccccc1/N=C/c1ccc[nH]1 | > 40 µM (active)
24 | C/N=c1\scc(-c2ccccc2Br)n1/N=C/c1ccc[nH]1 | > 40 µM (active)

Target: FAD-linked sulfhydryl oxidase ALR (Homo sapiens, UniProt P55789)
Sequence (P55789 whole entry): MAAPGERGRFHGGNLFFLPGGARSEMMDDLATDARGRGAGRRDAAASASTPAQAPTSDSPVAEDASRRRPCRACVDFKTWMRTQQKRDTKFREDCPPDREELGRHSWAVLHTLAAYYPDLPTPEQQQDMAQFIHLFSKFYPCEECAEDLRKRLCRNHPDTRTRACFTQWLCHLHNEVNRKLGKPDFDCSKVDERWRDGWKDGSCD
Assay: inhibitors of human ALR sulfhydryl oxidase, dose response, biochemical, H2O2 detection, luminescence, cherry-pick (AID 493248)
Conditions: not given

Row | Structure (SMILES) | AC50
25 | O=C(NCc1cccs1)C(=O)NCC(c1ccco1)N1CCN(c2ccccc2)CC1 (centres undefined) | 0.01 µM (active)
26 | Nc1n[nH]c(N2CCN(c3ccc(Cl)cc3)CC2)n1 | 0.325 µM (active)
27 | CCN(CC)Cc1c(-c2ccccc2)nc2ccc(C)cc2c1O | 1.77 µM (active)
28 | COc1ccccc1N1CCN(C(=O)CCNS(=O)(=O)c2cc(Br)cnc2N)CC1 | 11.8 µM (active)
29 | COc1ccccc1Nc1nc(C2(C)CCC(=O)O2)cs1 (centres undefined) | 4.38 µM (active)
30 | COc1cccc(CNC(=O)CCNC(=O)N2CCn3c2nc2ccccc23)c1 | 1.09 µM (active)
31 | COc1cccc(/C=N/N2C(=O)NC3(CCCCC3)C2=O)c1O | 9.34 µM (active)
32 | NNCCc1ccccc1 [PHENELZINE SULFATE] | 7.5 µM (active)

Target: Cytochrome P450 3A4 (Homo sapiens, UniProt P08684);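 also: CYP3A4 tested as one member of a cytochrome P450 panel screen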
Sequence (P08684 whole entry): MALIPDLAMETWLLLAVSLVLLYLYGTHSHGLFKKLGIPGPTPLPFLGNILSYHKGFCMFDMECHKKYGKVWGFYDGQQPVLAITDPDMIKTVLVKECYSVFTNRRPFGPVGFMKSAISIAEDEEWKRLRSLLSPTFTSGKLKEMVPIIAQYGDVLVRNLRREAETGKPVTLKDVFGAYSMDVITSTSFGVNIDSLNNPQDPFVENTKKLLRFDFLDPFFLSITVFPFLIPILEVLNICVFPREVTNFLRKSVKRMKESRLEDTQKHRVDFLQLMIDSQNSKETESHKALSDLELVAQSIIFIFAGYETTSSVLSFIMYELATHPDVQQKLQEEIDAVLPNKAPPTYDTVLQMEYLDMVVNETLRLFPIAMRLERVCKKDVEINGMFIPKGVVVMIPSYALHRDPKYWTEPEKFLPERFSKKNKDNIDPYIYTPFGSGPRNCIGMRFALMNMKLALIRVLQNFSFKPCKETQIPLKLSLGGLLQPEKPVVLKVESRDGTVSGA
Assay: not given
Conditions: not given

Row | Structure (SMILES) | AC50
33 | CCOC(=O)c1cnn(-c2ccccc2)c1-n1cccc1C(=O)C(=O)Nc1ccccc1C(F)(F)F | 4.47 µM (inconclusive)

Target: Cytochrome P450 2C9 (Homo sapiens, UniProt P11712)
Sequence (P11712 whole entry): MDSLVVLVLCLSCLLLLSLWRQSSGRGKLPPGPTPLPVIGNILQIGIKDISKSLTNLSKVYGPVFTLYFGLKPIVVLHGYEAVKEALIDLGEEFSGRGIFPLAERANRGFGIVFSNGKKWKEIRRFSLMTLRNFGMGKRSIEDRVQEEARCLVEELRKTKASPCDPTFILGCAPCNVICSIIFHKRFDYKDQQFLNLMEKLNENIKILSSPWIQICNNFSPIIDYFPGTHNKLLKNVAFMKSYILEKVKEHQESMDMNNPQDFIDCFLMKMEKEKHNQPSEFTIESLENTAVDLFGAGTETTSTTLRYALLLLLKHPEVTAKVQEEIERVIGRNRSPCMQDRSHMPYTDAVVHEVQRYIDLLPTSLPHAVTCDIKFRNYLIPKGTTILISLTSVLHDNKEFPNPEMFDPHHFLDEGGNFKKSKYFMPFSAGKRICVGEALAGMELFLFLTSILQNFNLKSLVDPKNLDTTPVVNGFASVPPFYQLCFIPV
Assay: not given
Conditions: not given

Row | Structure (SMILES) | AC50
34 | CCOC(=O)c1cnn(-c2ccccc2)c1-n1cccc1C(=O)C(=O)Nc1ccccc1C(F)(F)F | 5.62 µM (inconclusive)
